Holding throughout (experiment): DiscoverX scanMAX competition binding assay
One test deals with T1, PRKAA2 (Homo sapiens, UniProt P54646).
T1 construct: purchased Eurofins DiscoverX Corporation
As to conditions: read-out: % inhibition in the DiscoverX scanMAX panel at 1 μM. The source says: (§1) Based on its narrow profile when tested in the combined Nanosyn and TSA panels, GW296115 was included in the recently released Kinase Chemogenomic Set (KCGS)[15]. All of the data presented in the Introduction section was collected prior to the inclusion of GW296115 in KCGS and everything that follows has been subsequently generated. Since its inclusion in PKIS and more recently KCGS, we have carried out a broader round of screening at DiscoverX. This profiling data has not been previously released and is reported here for the first time. GW296115 was profiled against 403 wild type human kinases at 1 μM using the DiscoverX scanMAX screening platform, which employs an active site-directed competition binding assay to quantitatively measure interactions between test compounds and kinases, [16]. GW296115 inhibited 25 kinases > 90% at 1 μM, resulting in a selectivity index (S10) of 0.062 at 1 μM (Table S2, Fig. 1C)[17].
To ascertain selectivity of GW296115 and validate our DiscoverX screening results using an orthogonal assay format, we chose to utilize Eurofins enzymatic kinase assays in dose–response at the Km of ATP.
(§2) The scanMAX assays were performed at Eurofins DiscoverX Corporation as previously described.

In another test the target is PLK4 (Homo sapiens, UniProt O00444). Set-up: purchased Eurofins DiscoverX (scanMAX) / Eurofins enzymatic assays.
Source text: as §1, §2

For another test, the target named is MYLK/MLCK/smMLCK (Homo sapiens, UniProt Q15746). Set-up: purchased Eurofins DiscoverX (scanMAX) / Eurofins enzymatic assays.
Source text: as §1, §2

The next test addresses TNIK (Homo sapiens, UniProt Q9UKE5). On the set-up: purchased Eurofins DiscoverX (scanMAX) / Eurofins enzymatic assays.
Source text: as §1, §2

In a further test the target is STK17A/DRAK1 (Homo sapiens, UniProt Q9UEE5). On the set-up: purchased Eurofins DiscoverX (scanMAX) / Eurofins enzymatic assays.
Source text: as §1, §2

The next test concerns the target MINK1/MINK (Homo sapiens, UniProt Q8N4C8). Set-up: purchased Eurofins DiscoverX (scanMAX) / Eurofins enzymatic assays.
Source text: as §1, §2

The target in the next test is SGK1/SGK (Homo sapiens, UniProt O00141). On the set-up: purchased Eurofins DiscoverX (scanMAX) / Eurofins enzymatic assays.
Source text: as §1, §2

The next test addresses PDGFRB (Homo sapiens, UniProt P09619). Set-up: purchased Eurofins DiscoverX (scanMAX) / Eurofins enzymatic assays.
Source text: as §1, §2

For a further test, the target named is MAP3K9/MLK1 (Homo sapiens, UniProt P80192). On the set-up: purchased Eurofins DiscoverX (scanMAX) / Eurofins enzymatic assays.
Source text: as §1, §2

The target in a further test is AURKB (Homo sapiens, UniProt Q96GD4). On the set-up: purchased Eurofins DiscoverX (scanMAX) / Eurofins enzymatic assays.
Source text: as §1, §2

A further test deals with MAP3K11/MLK3 (Homo sapiens, UniProt Q16584). On the set-up: purchased Eurofins DiscoverX (scanMAX) / Eurofins enzymatic assays.
Source text: as §1, §2

In another test the target is PIM3 (Homo sapiens, UniProt Q86V86). On the set-up: purchased Eurofins DiscoverX (scanMAX) / Eurofins enzymatic assays.
Source text: as §1, §2

Another test concerns the target DAPK2 (Homo sapiens, UniProt Q9UIK4). Set-up: purchased Eurofins DiscoverX (scanMAX) / Eurofins enzymatic assays.
Source text: as §1, §2

The next test deals with T2, STK17B/DRAK2 (Homo sapiens, UniProt O94768).
T2 sequence (O94768 1-372): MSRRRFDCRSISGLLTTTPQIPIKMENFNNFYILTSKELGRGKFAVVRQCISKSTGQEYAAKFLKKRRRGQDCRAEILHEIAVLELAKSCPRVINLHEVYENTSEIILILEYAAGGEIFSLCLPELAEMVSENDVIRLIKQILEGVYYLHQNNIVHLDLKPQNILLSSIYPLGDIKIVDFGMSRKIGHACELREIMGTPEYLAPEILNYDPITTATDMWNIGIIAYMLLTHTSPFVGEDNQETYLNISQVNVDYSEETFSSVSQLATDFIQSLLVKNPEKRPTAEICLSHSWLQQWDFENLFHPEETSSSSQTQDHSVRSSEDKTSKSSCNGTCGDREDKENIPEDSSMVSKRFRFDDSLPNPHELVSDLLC
On the set-up: purchased Eurofins DiscoverX (scanMAX) / Eurofins enzymatic assays.
Source text: as §1, §2

Another test deals with PRKG2/PKG2 (Homo sapiens, UniProt Q13237). Set-up: purchased Eurofins DiscoverX (scanMAX) / Eurofins enzymatic assays.
Source text: as §1, §2

A further test deals with DAPK3/ZIPK (Homo sapiens, UniProt O43293). On the set-up: purchased Eurofins DiscoverX (scanMAX) / Eurofins enzymatic assays.
Source text: as §1, §2

The next test concerns the target FLT3 (Homo sapiens, UniProt P36888). On the set-up: purchased Eurofins DiscoverX (scanMAX) / Eurofins enzymatic assays.
Source text: as §1, §2

The target of the next test is LRRK2 (Homo sapiens, UniProt Q5S007). Set-up: purchased Eurofins DiscoverX (scanMAX) / Eurofins enzymatic assays.
Source text: as §1, §2

The next test addresses AURKC (Homo sapiens, UniProt Q9UQB9). On the set-up: purchased Eurofins DiscoverX (scanMAX) / Eurofins enzymatic assays.
Source text: as §1, §2

Usually inhibition stands for the share of the control response that was lost under treatment.

PDGFRB, sequence (P09619 33-1106): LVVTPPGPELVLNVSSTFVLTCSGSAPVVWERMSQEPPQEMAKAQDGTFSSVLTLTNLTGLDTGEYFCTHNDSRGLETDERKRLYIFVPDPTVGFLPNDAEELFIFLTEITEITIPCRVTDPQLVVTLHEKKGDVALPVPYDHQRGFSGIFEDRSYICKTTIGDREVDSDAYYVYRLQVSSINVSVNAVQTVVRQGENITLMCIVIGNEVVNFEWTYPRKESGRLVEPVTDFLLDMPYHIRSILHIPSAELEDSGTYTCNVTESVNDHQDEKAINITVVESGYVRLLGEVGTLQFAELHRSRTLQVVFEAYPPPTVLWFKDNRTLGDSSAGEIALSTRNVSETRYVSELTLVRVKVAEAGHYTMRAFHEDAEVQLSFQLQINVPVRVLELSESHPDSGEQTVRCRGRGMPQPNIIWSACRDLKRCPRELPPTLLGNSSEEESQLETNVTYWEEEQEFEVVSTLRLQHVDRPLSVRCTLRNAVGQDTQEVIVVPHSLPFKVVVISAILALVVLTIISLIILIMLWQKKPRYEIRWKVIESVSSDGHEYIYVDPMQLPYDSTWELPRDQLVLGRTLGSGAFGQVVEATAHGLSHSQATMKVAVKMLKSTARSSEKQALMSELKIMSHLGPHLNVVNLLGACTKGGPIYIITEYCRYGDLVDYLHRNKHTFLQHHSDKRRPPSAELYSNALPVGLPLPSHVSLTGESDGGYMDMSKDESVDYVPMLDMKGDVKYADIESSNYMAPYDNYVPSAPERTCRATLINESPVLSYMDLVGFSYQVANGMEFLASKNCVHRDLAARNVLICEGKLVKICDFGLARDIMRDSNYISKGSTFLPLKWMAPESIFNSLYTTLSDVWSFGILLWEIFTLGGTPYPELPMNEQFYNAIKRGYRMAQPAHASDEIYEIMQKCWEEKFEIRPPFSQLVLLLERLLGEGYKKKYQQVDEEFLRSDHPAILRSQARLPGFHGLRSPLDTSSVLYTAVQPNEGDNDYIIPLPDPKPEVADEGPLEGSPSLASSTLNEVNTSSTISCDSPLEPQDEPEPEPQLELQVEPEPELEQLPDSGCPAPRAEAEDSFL
MAP3K9/MLK1, sequence (P80192 whole entry): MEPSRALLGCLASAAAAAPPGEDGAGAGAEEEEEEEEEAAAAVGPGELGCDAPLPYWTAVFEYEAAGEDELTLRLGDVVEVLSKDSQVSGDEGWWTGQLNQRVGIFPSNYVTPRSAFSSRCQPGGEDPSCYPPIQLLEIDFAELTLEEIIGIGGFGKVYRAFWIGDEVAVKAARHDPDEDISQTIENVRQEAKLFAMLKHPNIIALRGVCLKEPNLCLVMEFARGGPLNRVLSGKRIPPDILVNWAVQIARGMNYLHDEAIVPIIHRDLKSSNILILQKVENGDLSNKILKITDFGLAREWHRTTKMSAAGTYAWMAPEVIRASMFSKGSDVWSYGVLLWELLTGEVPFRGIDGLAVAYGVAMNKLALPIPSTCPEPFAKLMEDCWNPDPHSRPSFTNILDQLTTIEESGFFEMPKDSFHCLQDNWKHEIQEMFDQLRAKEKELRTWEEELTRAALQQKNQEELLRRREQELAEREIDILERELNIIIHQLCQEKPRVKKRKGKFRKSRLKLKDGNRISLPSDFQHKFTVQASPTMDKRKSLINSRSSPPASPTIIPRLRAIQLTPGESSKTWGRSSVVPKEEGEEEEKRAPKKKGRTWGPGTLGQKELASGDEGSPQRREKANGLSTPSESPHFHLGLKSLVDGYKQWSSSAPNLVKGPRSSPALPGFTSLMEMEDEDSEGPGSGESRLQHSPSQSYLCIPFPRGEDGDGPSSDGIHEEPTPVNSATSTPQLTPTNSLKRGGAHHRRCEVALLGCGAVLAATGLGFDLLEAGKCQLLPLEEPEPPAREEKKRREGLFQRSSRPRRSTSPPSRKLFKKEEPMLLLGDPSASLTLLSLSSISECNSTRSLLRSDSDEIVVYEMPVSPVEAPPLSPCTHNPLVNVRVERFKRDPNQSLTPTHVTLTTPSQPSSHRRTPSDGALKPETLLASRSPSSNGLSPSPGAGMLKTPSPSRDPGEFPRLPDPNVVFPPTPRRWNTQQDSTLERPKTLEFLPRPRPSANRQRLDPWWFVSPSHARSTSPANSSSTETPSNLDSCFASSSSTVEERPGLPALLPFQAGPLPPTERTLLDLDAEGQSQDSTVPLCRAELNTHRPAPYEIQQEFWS
TNIK, sequence (Q9UKE5 whole entry): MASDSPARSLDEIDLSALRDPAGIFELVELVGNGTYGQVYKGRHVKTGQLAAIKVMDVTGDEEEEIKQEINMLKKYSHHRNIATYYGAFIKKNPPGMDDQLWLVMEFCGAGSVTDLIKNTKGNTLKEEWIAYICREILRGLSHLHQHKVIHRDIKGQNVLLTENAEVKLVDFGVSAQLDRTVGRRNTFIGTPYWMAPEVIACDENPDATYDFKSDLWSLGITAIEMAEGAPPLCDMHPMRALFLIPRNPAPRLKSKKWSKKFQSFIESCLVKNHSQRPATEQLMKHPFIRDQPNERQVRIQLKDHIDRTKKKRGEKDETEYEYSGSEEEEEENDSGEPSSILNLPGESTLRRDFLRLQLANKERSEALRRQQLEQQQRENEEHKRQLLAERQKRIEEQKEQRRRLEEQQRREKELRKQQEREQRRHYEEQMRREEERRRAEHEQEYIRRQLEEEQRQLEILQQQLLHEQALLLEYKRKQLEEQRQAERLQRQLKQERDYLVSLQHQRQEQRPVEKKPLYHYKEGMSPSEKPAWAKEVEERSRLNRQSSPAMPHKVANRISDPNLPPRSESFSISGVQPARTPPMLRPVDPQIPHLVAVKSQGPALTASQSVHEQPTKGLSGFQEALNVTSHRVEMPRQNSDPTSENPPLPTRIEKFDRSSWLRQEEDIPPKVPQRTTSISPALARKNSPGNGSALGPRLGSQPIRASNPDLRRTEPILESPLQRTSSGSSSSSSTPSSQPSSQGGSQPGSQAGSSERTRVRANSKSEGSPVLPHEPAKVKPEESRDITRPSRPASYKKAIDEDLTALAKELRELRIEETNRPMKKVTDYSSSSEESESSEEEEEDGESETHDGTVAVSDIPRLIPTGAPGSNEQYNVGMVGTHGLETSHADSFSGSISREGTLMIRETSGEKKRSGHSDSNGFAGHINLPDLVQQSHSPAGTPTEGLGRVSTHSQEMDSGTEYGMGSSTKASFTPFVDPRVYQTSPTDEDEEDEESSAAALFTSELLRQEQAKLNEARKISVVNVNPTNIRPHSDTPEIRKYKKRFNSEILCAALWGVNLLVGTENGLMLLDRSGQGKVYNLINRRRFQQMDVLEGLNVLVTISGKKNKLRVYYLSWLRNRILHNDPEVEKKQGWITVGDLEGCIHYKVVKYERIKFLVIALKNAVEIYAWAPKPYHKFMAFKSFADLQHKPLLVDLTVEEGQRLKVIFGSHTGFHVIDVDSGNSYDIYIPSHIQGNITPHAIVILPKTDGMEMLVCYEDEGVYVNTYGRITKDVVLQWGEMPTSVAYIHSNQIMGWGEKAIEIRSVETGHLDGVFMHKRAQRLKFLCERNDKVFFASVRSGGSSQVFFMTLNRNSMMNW
T1 sequence (P54646 whole entry): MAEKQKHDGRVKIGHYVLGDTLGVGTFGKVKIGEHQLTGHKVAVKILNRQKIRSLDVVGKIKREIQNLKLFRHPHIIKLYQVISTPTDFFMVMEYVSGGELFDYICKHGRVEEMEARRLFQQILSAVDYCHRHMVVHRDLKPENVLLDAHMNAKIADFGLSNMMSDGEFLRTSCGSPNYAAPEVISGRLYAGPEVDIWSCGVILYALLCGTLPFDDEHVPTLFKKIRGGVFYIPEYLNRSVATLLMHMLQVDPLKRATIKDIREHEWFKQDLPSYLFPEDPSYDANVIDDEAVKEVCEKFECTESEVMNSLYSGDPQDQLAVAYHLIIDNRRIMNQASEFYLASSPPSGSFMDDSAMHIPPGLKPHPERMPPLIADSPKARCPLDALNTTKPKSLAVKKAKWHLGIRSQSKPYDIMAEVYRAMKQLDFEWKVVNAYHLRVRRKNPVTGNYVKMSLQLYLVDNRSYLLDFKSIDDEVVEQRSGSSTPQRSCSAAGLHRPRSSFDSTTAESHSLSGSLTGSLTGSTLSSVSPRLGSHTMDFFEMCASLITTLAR
PLK4, sequence (O00444 whole entry): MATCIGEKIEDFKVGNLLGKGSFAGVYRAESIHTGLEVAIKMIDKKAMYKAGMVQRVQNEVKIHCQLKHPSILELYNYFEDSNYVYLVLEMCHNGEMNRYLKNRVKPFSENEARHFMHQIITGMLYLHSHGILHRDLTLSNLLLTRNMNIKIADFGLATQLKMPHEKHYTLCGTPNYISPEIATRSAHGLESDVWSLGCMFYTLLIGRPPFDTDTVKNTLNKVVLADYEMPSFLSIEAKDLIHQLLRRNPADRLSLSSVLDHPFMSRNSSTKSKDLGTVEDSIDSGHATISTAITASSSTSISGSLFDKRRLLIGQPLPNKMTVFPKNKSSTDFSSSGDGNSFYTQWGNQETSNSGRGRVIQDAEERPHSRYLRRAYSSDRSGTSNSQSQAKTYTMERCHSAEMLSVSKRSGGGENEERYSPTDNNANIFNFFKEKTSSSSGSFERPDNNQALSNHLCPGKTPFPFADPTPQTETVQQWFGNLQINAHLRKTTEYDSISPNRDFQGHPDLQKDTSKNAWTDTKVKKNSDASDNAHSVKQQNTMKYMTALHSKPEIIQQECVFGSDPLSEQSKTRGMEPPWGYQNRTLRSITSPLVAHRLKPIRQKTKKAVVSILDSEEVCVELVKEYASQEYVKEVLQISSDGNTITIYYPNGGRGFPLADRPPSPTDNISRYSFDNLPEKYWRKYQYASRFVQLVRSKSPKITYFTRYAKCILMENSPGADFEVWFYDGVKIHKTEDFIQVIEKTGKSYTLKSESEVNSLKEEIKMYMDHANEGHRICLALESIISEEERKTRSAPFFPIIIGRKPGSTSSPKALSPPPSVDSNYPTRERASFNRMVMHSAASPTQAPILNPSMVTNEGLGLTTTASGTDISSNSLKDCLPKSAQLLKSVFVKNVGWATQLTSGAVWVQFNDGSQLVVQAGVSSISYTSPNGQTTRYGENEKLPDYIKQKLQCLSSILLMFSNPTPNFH

Turning to `COc1ccc2[nH]c3c4[nH]c5ccc(OC)cc5c4c4c(c3c2c1)C(=O)NC4=O` [GW296115], the inhibition at 1 µM on PRKAA2 came out at 20%; on PLK4, 99.5%; on MYLK/MLCK/smMLCK, 95.4%; on TNIK it was 97.7%; at STK17A/DRAK1, 99.6%; on MINK1/MINK, 96%. In addition, the inhibition at 1 µM at SGK1/SGK is 91.2%; at PDGFRB it was 99.8%; on MAP3K9/MLK1, 95.1%; at AURKB, 90%; at MAP3K11/MLK3 it was 92.4%; on PIM3, 94.4%. Further, the inhibition at 1 µM is 96.7% at DAPK2; 100% at STK17B/DRAK2; 98.8% on PRKG2/PKG2; 96.9% on DAPK3/ZIPK; 91.5% at FLT3; 100% on LRRK2. On AURKC, this compound had an inhibition at 1 µM of 94.1%.

For the origin of these results see publication PMC7522982, “PKIS deep dive yields a chemical starting point for dark kinases and a cell active BRSK2 inhibitor” (Scientific Reports, 2020).
